Measured values: patent publication US7071158B2, “Antioxidant enhancement of therapy for hyperproliferative conditions” (Atherogenics, Inc., priority 1997, dated 2006)

How the values were obtained:
HCT 15-derived tumors = assay: HCT 15 tumor xenografts in athymic mice; assay type: in vivo; details: HCT 15-derived tumors, after 3 weeks of single agent treatment, before cross-over
Method: HCT 15-derived tumors were generated as described above. Animals were then treated with pyrrolidinedithiocarbamate, in the presence or absence of 5-FU, for 3 weeks. At this point, treatments were discontinued in animals receiving the combined treatment of pyrrolidinedithiocarbamate and 5-FU for 2 months. All other treatment groups received both 5-FU and pyrrolidinedithiocarbamate for the remaining 3 weeks.
Male athymic Balb/c nu/nu mice were obtained from the Harlan Sprague-Dawley Company at 4–6 weeks of age and were quarantined for at least 2 weeks before the study. […] HCT 116 and HCT 15 CRC cell lines were grown in DMEM supplemented with 10% FBS as described above. Cells were harvested through two consecutive trypsinizations, centrifuged at 300 g for 5 minutes, washed twice, and resuspended in sterile phosphate buffered saline. One ×10^6 cells in 0.2 ml were injected subcutaneously between the scapula of 7- to 10-week-old male nude mice.
Tumor volumes were estimated weekly by measuring the maximal length, width, and height. Once tumors reached a mean size of 120 to 150 mm^3, animals received either weekly i.p. injections of pyrrolidinedithiocarbamate (70 μM) or vitamin E (3 mM), 5-FU (40 mg/kg) or saline, or a combination of pyrrolidinedithiocarbamate or vitamin E and 5-FU or 6 weeks. In cross-over experiments, animals received the above treatments for three weeks (with the exception of vitamin E), and then were crossed-over to either the combination treatment of pyrrolidinedithiocarbamate and 5-FU (saline, pyrrolidinedithiocarbamate or 5-FU alone) or discontinued treatment pyrrolidinedithiocarbamate and 5-FU) for the remaining three weeks of the experiment. […] Tumor volumes were recorded weekly until termination of the study.
Tumor tissues were fixed overnight in 4% (v/v) paraformaldehyde and embedded in paraffin according to standard histological procedures. […] The proliferative index (BrDU) and the apoptotic index (TUNEL) were estimated by the percentage of cells scored under a microscope at 200-fold magnification.

[1] = system: murine small intestine and the murine colon; details: mouse, in vivo
DKO-3 = assay: DNA fragmentation after PDTC treatment; assay type: cell-based; details: 70 μM
HCT 116 = assay: DNA fragmentation after PDTC treatment; assay type: cell-based, human; details: 70 μM
HCT 116 cells = assay: Soft-agar colony formation (anchorage-independent growth); details: Homo sapiens, HCT-116, 240 h, read-out: approximate IC50 in soft agar
Method: (§1) FIG. 1A is a graph of the concentration of PDTC versus soft-agar forming units×10^6 HCT 15 and HCT 116 cells (as a percent of control). […] Soft-agar colony formation was measured by seeding HCT 116 or HCT 15 cells in soft agar supplemented with either medium alone (control), or increasing concentrations of pyrrolidinedithiocarbamate (25–200 μM) or vitamin E (0.1–10 mM). Colonies were scored at the end of 10 days incubation at 37° C. Values are representative of three experiments carried out in quadruplicate.
(§2) HCT 116 and HCT 15 cells were seeded in soft agar as described above containing increasing concentrations of either 5-FU (5×10^−8 to 5×10^−5 M) or doxorubicin (1×10^−9 to 1×10^−6 M), in the presence or absence of pyrrolidinedithiocarbamate (70 μM) or vitamin E (3 mM). Colonies were scored after 10 days and IC50 values were calculated as the concentration of 5-FU or doxorubicin required to reduce basal colony formation by 50% (±s.e.m.). Values are representative of three experiments carried out in quadruplicate.

HCT 15 cells = assay: as above; details: Homo sapiens, HCT-15, 240 h, read-out: approximate IC50 in soft agar
Method: as §1, §2

MCF-10HRas = assay: Effect of PDTC on cell proliferation (IC50); assay type: cell-based; details: Breast carcinoma cell, Breast carcinoma cells, read-out: IC50 required to inhibit cellular proliferation or induce apoptosis
Method: (§3) The effect of PDTC on cellular proliferation or apoptosis was evaluated in a number of normal and cancer cell lines. The IC50 was measured as the concentration of PDTC that inhibited cellular proliferation.

[2] = system: Primary mammary epithelia; assay: Effect of PDTC on cell proliferation (IC50); assay type: cell-based; details: Homo sapiens, Normal cells, read-out: IC50 required to inhibit cellular proliferation or induce apoptosis
Method: as §3

PANC-1 = assay: Effect of PDTC on cell proliferation (IC50); assay type: cell-based; details: Homo sapiens, Pancreatic carcinoma cells, read-out: IC50 required to inhibit cellular proliferation or induce apoptosis
Method: as §3

MDA-MB231 = assay: Effect of PDTC on cell proliferation (IC50); assay type: cell-based; details: Homo sapiens, MDA-MB-231, Breast carcinoma cells, read-out: IC50 required to inhibit cellular proliferation or induce apoptosis
Method: as §3

Primary colonocytes [3] = assay: Effect of PDTC on cell proliferation (IC50); assay type: cell-based; details: Homo sapiens, Normal cells, read-out: IC50 required to inhibit cellular proliferation or induce apoptosis
Method: as §3

AsPo1 = assay: Effect of PDTC on cell proliferation (IC50); assay type: cell-based; details: Pancreatic carcinoma cells, read-out: IC50 required to inhibit cellular proliferation or induce apoptosis
Method: as §3

MCF-10WT = assay: Effect of PDTC on cell proliferation (IC50); assay type: cell-based; details: Breast carcinoma cell, Breast carcinoma cells, read-out: IC50 required to inhibit cellular proliferation or induce apoptosis
Method: as §3

BxPc3 = assay: Effect of PDTC on cell proliferation (IC50); assay type: cell-based; details: Homo sapiens, BXPC-3, Pancreatic carcinoma cells, read-out: IC50 required to inhibit cellular proliferation or induce apoptosis
Method: as §3

[4] = system: Non-transformed rat intestinal epithelial cells; assay: Effect of PDTC on cell proliferation (IC50); assay type: cell-based; details: Normal cells, read-out: IC50 required to inhibit cellular proliferation or induce apoptosis
Method: as §3

MDA MB-468 = assay: Effect of PDTC on cell proliferation (IC50); assay type: cell-based; details: Homo sapiens, Breast carcinoma cells, read-out: IC50 required to inhibit cellular proliferation or induce apoptosis
Method: as §3

MCF-7 = assay: Effect of PDTC on cell proliferation (IC50); assay type: cell-based; details: Homo sapiens, MCF7, Breast carcinoma cells, read-out: IC50 required to inhibit cellular proliferation or induce apoptosis
Method: as §3

Hs746T = assay: Effect of PDTC on cell proliferation (IC50); assay type: cell-based; details: Homo sapiens, Gastric carcinoma cells, read-out: IC50 required to inhibit cellular proliferation or induce apoptosis
Method: as §3

N-87 = assay: Effect of PDTC on cell proliferation (IC50); assay type: cell-based; details: Gastric carcinoma cells, read-out: IC50 required to inhibit cellular proliferation or induce apoptosis
Method: as §3

Saos-2 = assay: Effect of PDTC on cell proliferation (IC50); assay type: cell-based; details: Homo sapiens, Osteosarcoma, read-out: IC50 required to inhibit cellular proliferation or induce apoptosis
Method: as §3

Keratinocytes = assay: Effect of PDTC on cell proliferation (IC50); assay type: cell-based; details: Homo sapiens, Keratinocyte, Normal cells, read-out: IC50 required to inhibit cellular proliferation or induce apoptosis
Method: as §3

DLD-1 = assay: DNA fragmentation after PDTC treatment; assay type: cell-based; details: 70 μM
Mutant p53 HCT 15 = assay: DNA fragmentation after PDTC treatment; assay type: cell-based, human; details: 70 μM
Wild Type p53 HCA-7 = assay: DNA fragmentation after PDTC treatment; assay type: cell-based; details: 70 μM
Primary colonocytes [5] = assay: DNA fragmentation after PDTC treatment; assay type: cell-based, human; details: 70 μM

## S=C(S)N1CCCC1 [PDTC, pyrrolidinedithiocarbamate]
HCT 15-derived tumors
  tumor size: 1325+210 mm^3
[1]
  toxicity of 5-FU: substantially reduces the toxicity of 5-FU
DKO-3; 3 h
  DNA Fragmentation after PDTC Treatment: 223 ± 11 % Control
DKO-3; 6 h
  DNA Fragmentation after PDTC Treatment: 478 ± 16 % Control
DKO-3; 12 h
  DNA Fragmentation after PDTC Treatment: 896 ± 23 % Control
DKO-3; 24 h
  DNA Fragmentation after PDTC Treatment: 1116 ± 54 % Control
HCT 116; 3 h
  DNA Fragmentation after PDTC Treatment: 108 ± 11 % Control
HCT 116; 6 h
  DNA Fragmentation after PDTC Treatment: 131 ± 21 % Control
HCT 116; 12 h
  DNA Fragmentation after PDTC Treatment: 198 ± 23 % Control
HCT 116; 24 h
  DNA Fragmentation after PDTC Treatment: 367 ± 49 % Control
HCT 116 cells
  IC50: ~70 µM
HCT 15 cells
  IC50: ~70 µM
MCF-10HRas
  IC50: 5 µM
[2]
  IC50: 650 µM
PANC-1
  IC50: 75 µM
MDA-MB231
  IC50: 10 µM
Primary colonocytes [3]
  IC50: 500 µM
AsPo1
  IC50: 70 µM
MCF-10WT
  IC50: 5 µM
BxPc3
  IC50: 100 µM
[4]
  IC50: 450 µM
MDA MB-468
  IC50: 20 µM
MCF-7
  IC50: 13 µM
Hs746T
  IC50: 35 µM
N-87
  IC50: 40 µM
Saos-2
  IC50: 10 µM
Keratinocytes
  IC50: 600 µM
DLD-1; 3 h
  DNA Fragmentation after PDTC Treatment: 213 ± 17 % Control
DLD-1; 6 h
  DNA Fragmentation after PDTC Treatment: 296 ± 21 % Control
DLD-1; 12 h
  DNA Fragmentation after PDTC Treatment: 712 ± 34 % Control
DLD-1; 24 h
  DNA Fragmentation after PDTC Treatment: 876 ± 46 % Control
Mutant p53 HCT 15; 3 h
  DNA Fragmentation after PDTC Treatment: 145 ± 12 % Control
Mutant p53 HCT 15; 6 h
  DNA Fragmentation after PDTC Treatment: 259 ± 18 % Control
Mutant p53 HCT 15; 12 h
  DNA Fragmentation after PDTC Treatment: 673 ± 34 % Control
Mutant p53 HCT 15; 24 h
  DNA Fragmentation after PDTC Treatment: 979 ± 34 % Control
Wild Type p53 HCA-7; 3 h
  DNA Fragmentation after PDTC Treatment: 111 ± 13 % Control
Wild Type p53 HCA-7; 6 h
  DNA Fragmentation after PDTC Treatment: 126 ± 17 % Control
Wild Type p53 HCA-7; 12 h
  DNA Fragmentation after PDTC Treatment: 154 ± 19 % Control
Wild Type p53 HCA-7; 24 h
  DNA Fragmentation after PDTC Treatment: 302 ± 35 % Control
Primary colonocytes [5]; 3 h
  DNA Fragmentation after PDTC Treatment: 101 ± 10 % Control
Primary colonocytes [5]; 6 h
  DNA Fragmentation after PDTC Treatment: 109 ± 9 % Control
Primary colonocytes [5]; 12 h
  DNA Fragmentation after PDTC Treatment: 107 ± 10 % Control
Primary colonocytes [5]; 24 h
  DNA Fragmentation after PDTC Treatment: 130 ± 16 % Control
